Measured values as given in PubChem BioAssay (NCI).
Several values for one entry are separate records, joined by “and”; a condition that tells them apart may be missing. Equal values may be shown once.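 All cell lines were grown in 96-well plates and treated with compound for 48 hours. Abbreviation: GI50, concentration required for 50% inhibition of growth. TGI: total growth inhibition.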

Tests used:
Experiment in all cases: NCI-60 cell line screen, 48 h
[1] = system: A498 renal
[2] = system: BT-549 breast
[3] = system: DU-145 prostate
[4] = system: HL-60(TB) leukemia
[5] = system: IGROV1 ovarian
[6] = system: MDA-MB-435
[7] = system: MDA-N
[8] = system: NCI-H23 lung
[9] = system: PC-3 prostate
[10] = system: HOP-62 NSCLC
[11] = system: NCI-H522 lung

Structure (SMILES) | TGI [1] | TGI [2] [µM] | TGI [3] [µM] | TGI [4] | TGI [5] [µM] | TGI [6] [µM] | TGI [7] [µM] | TGI [8] | TGI [9] [µM] | TGI [10] [µM] | TGI [11] | GI50 [1] | GI50 [4] [µM] | GI50 [5] [µM] | GI50 [8] | GI50 [11]
O=C1Nc2ccccc2NC1C1OC(c2ccccc2)=CC1=O (stereo unspecified) | > 100 µM | > 100 | > 100 | > 100 µM | > 100 | > 100 | > 100 | > 100 µM | > 100 | – | – | – | – | – | – | –
CCCCCC(/C=C/[C@@H]1CC(=O)C[C@H]1O[Si](C)(C)C(C)(C)C)OCOCCOC (stereo partly specified) | 18.1 µM | 11.7 | 32.8 | > 100 µM | 9.48 | 4.64 | 9.44 | 12.9 µM | 14.1 | 31.7 | 4.01 µM | – | – | – | – | –
O=C(c1ccc(Cl)cc1)N1N=C(c2ccc(Cl)cc2)CC1(O)c1cc(F)c(Cl)cc1Cl (stereo unspecified) | 58.6 µM | > 100 | > 100 | 87 µM | > 100 | 39.5 | 28.5 | 73 µM | > 100 | 76.9 | > 100 µM | – | – | – | – | –
CC(=O)Oc1ccc(OC(Oc2ccccc2)c2ccccc2)cc1 (stereo unspecified) | 43.5 µM | 68 | > 100 | 41.8 µM | > 100 | 94.3 | 42.2 | 47.6 µM | > 100 | > 100 | 96.4 µM | – | – | – | – | –
Cc1ccc(S(=O)(=Nc2ccccc2)C(C(C)C)C(C)(C)Cl)cc1 (stereo unspecified) | > 50 µM | > 50 | > 50 | 22 µM | > 50 | 38.6 | > 50 | 46.5 µM | > 50 | > 50 | > 50 µM | – | – | – | – | –
CCN(CC)C(=S)SNCCc1ccc(S(N)(=O)=O)cc1 | > 65.1 µM | 30 | 33.8 | > 67.2 µM | – | 29.6 | 40.6 | 38.7 µM | 26.9 | 26.3 | 4.63 µM | – | – | – | – | –
O=C(Nc1ccc2ccccc2c1)Nn1cnnc1 | > 100 µM | > 100 | > 100 | > 100 µM | > 100 | > 100 | > 100 | > 100 µM | > 100 | > 100 | > 100 µM | – | – | – | – | –
CCOC(=O)/C=C(/C(=O)OCC)n1c(=O)c(C)cn(C2CC(N=[N+]=[N-])C(CO)O2)c1=O (stereo unspecified) | > 100 µM | > 100 | > 100 | 5.18 µM | > 100 | > 100 | > 100 | > 100 µM | 32.8 | > 100 | > 100 µM | – | – | – | – | –
CC1CCC2c3c([nH]c4ccccc34)C3C(=O)N(C4CCCCC4)C(=O)C3C2C1 (stereo unspecified) | 37.9 µM | 32.7 | > 100 | > 100 µM | 43.9 | > 100 | > 100 | 54.2 µM | > 100 | 32.7 | > 100 µM | – | – | – | – | –
C1OCN2c3nonc3N3COCN4c5nonc5N1C2C43 (stereo unspecified) | > 100 µM | > 100 | > 100 | > 100 µM | > 100 | > 100 | > 100 | > 100 µM | > 100 | – | > 100 µM | – | – | – | – | –
N=C1N=C(N)c2cc3c(cc21)SCCSCCCSCCS3 | > 69.6 µM | 31.4 | 88.4 | 20.6 µM | 38.4 | 15.9 | 33.8 | 16.2 µM | 34.7 | 30.7 | 11.1 µM | – | – | – | – | –
Cc1cc(=O)c2c(O)c3c(O)cc(O)c4c5c(O)cc(O)c6c(O)c7c(=O)cc(C)c8c1c2c(c34)c(c65)c78 | > 100 µM and 75.6 µM | > 100 | > 100 | > 100 µM and 30.7 µM | > 100 | > 100 | > 100 | > 100 µM and 60.2 µM | > 100 | > 73 | > 100 µM and 44.2 µM | 64.9 µM and 28.9 µM | 11.7 | > 100 | > 100 µM and 23 µM | > 100 µM and 19.4 µM
CCCCCCC(CCl)c1sc(-c2csc(CCNC(=O)OC(C)(C)C)n2)nc1C(=O)OC (stereo unspecified) | > 100 µM | 58.3 | > 100 | > 100 µM | > 100 | 30.4 | 87.9 | > 100 µM | 63.8 | > 100 | > 100 µM | – | – | – | – | –
C=CCN1CC2CN=NC2(C#N)C1 (stereo unspecified) | > 100 µM | > 100 | > 100 | > 100 µM | > 100 | > 100 | > 100 | > 100 µM | > 100 | > 100 | > 100 µM | – | – | – | – | –
CC(=O)O[C@H]1CC[C@@]2(C)C(=CC[C@@H]3[C@@H]2CC[C@]2(C)c4nc(N)c(C#N)cc4C[C@@H]32)C1 | > 100 µM | > 63.7 | > 100 | > 94.9 µM | > 100 | > 100 | > 100 | > 100 µM | > 100 | 46.5 | > 100 µM | – | – | – | – | –
C[C@H](CC[C@@H](O)C(C)(C)O)[C@H]1CC[C@@]2(C)[C@@H]3CC=C4[C@@H](CC[C@H](OC5OC(CO)C(O)C(O)C5O)C4(C)C)[C@]3(C)C(=O)C[C@]12C (stereo partly specified) | > 100 µM | > 100 | > 100 | 75.8 µM | 44.3 | > 100 | > 100 | > 100 µM | > 100 | > 100 | > 100 µM | – | – | – | – | –
CC1(C)Oc2ccc(Cl)cc2C12CC2 | 29.9 µM | 68.5 | 29.5 | 40.3 µM | 28.7 | 32.6 | 35.9 | 59 µM | 27.9 | 37.7 | – | – | – | – | – | –
O=C(NCCO)c1c(O)c2ccccc2[nH]c1=O | > 100 µM | > 100 | > 100 | > 100 µM | > 100 | > 100 | > 100 | > 100 µM | > 100 | > 100 | > 100 µM | – | – | – | – | –

Structure (SMILES) | TGI [1] | TGI [2] [µM] | TGI [3] [µM] | TGI [4] | TGI [5] [µM] | TGI [6] [µM] | TGI [7] [µM] | TGI [8] | TGI [9] [µM] | TGI [10] [µM] | TGI [11] | GI50 [1] | GI50 [4] [µM] | GI50 [5] [µM] | GI50 [8] | GI50 [11]
O=[N+]([O-])c1cccc2nc3ccccc3c(NCCC[N+]3([O-])CCCCC3)c12 | 2.47 µM | 1.53 | 1.9 | 8.44 µM | 6.33 | 0.44 | 0.56 | 0.622 µM | 0.649 | 3.55 | 0.345 µM | – | – | – | – | –
CC(C)OC(=O)c1ccc(CCC2=CC(=O)C(Br)=CC2=O)cc1 | > 85 µM | 16.8 | 63.3 | 9.25 µM | 27.8 | 32.9 | 30.9 | 26.2 µM | 31.8 | 63.1 | 19.3 µM | – | – | – | – | –
N#CC1N(C(=O)c2ccc(F)cc2)c2ccccc2N1C(=O)c1ccc(F)cc1 | > 100 µM | 77.3 | > 100 | > 100 µM | > 100 | > 100 | > 100 | > 100 µM | > 100 | > 100 | > 100 µM | – | – | – | – | –
C/C=C/C=C/C1=NN(c2cccc(S(=O)(=O)O)c2)C2(C1)SCC(=O)N2c1nc2ccccc2s1 (stereo unspecified) | > 100 µM | > 100 | > 100 | > 100 µM | > 100 | > 100 | > 100 | > 100 µM | > 100 | – | > 100 µM | – | – | – | – | –
O=C(c1ccc(Cl)cc1)N(Cc1cccnc1)C(=S)N(Cc1cccnc1)C(=O)c1ccc(Cl)cc1 | 91.5 µM | 51 | > 100 | 85.2 µM | – | > 100 | 56.6 | > 100 µM | 90.3 | > 100 | 69.1 µM | – | – | – | – | –
CC[C@@]1(O)C(=O)OCc2c1cc1n(c2=O)Cc2c-1nc1ccccc1c2/C=N\NC(=O)C(N)CS (stereo partly specified) | 23 µM | > 100 | 6.76 | > 100 µM | > 85.3 | > 100 | > 100 | 21.1 µM | > 100 | – | 25.9 µM | – | – | – | – | –
Cc1cccc2c(N)c3cccc(C(=O)NCC[N+](C)(C)Cc4sc(N5CCOCC5)nc4[N+](=O)[O-])c3nc12 | 37.3 µM | 40.8 | > 100 | – | > 100 | 35.2 | 21.8 | 15.3 µM | 16.8 | 7.77 | 4.54 µM | – | – | – | – | –
O=C1c2ccccc2C2(c3ccc(Cl)cc3)NCc3ccccc3CN12 (stereo unspecified) | 42.8 µM | > 100 | 50.3 | 40.6 µM | 94.7 | > 100 | > 100 | 48.4 µM | 51.3 | 30.5 | – | – | – | – | – | –
C=C1C(=O)[C@]23[C@H](O)[C@H]1CC[C@H]2[C@@]12CO[C@@]3(O)C[C@@H]1C(C)(C)CC[C@@H]2O | 20.1 µM | 8.33 | > 25 | > 25 µM | 20.9 | 7.61 | > 25 | > 25 µM | > 25 | > 25 | 8.8 µM | – | – | – | – | –
CC(=O)NC1C(OCc2ccccc2)OC(CO)C(O)C1OCC(=O)NC(C)C(=O)NC(CCC(=O)NCCCCCC(=O)Nc1ccc2c(c1)CN1C(=O)c3ccccc3C1=N2)C(N)=O (stereo unspecified) | > 100 µM | > 100 | > 100 | > 100 µM | > 100 | > 100 | > 100 | > 100 µM | > 100 | > 100 | – | – | – | – | – | –
COc1ccc2[nH]c(C(=O)N3CC(CCl)c4ccc([N+](=O)[O-])cc43)cc2c1 (stereo unspecified) | > 100 µM | > 100 | > 100 | > 100 µM | > 100 | > 100 | > 100 | > 100 µM | > 100 | > 100 | > 100 µM | – | – | – | – | –
CN(N)C(=O)NCCCl | > 100 µM | > 100 | > 100 | > 100 µM | > 100 | > 100 | > 100 | > 100 µM | > 100 | > 100 | > 100 µM | – | – | – | – | –
Cc1ccc(S(=O)(=O)n2cc(-c3cnc(N)c(Br)n3)c3ccccc32)cc1 | > 24.8 µM | > 100 | 6.68 | 6.58 µM | 5.71 | 0.588 | 0.836 | 5.94 µM | > 31.1 | > 100 | – | – | – | – | – | –
COC(=O)C[C@H](COCc1ccccc1)NC(=O)C[C@H](COCc1ccccc1)NC(=O)C[C@H](COCc1ccccc1)NC(=O)OC(C)(C)C | 67.1 µM | > 100 | > 100 | > 100 µM | > 100 | > 100 | > 100 | > 100 µM | 41.2 | 48 | > 100 µM | – | – | – | – | –
O=C(CCc1cc(O)cc(O)c1)NCCc1ccc(O)c(O)c1 | > 100 µM | > 100 | > 100 | – | > 100 | 52.8 | > 100 | > 100 µM | > 100 | > 100 | > 100 µM | – | – | – | – | –
O=C1C=CC2(O[C@@H](Cc3ccccc3)[C@H](Cc3ccccc3)O2)C(SC(=O)c2ccccc2)C1 (stereo partly specified) | 16.2 µM | 1.11 | 11.8 | 4.82 µM | 2.54 | 5.46 | 5.22 | 4.67 µM | 3.69 | 2.68 | – | – | – | – | – | –
CC(O)(c1ccccc1)c1nccc2ccccc12 (stereo unspecified) | > 100 µM | > 100 | > 100 | > 100 µM | > 100 | 39.2 | 53.7 | > 100 µM | > 100 | > 100 | > 100 µM | – | – | – | – | –
